Results as given in patent publication US4954358A, “Multiplication inhibitor for Bacillus cereus” (priority 1986, dated 1990).

Legend:
Type in all cases: cell-based
total viable bacteria = assay: Keeping test, cooked rice not contaminated with Bacillus cereus, 30° C.; details: time without smell of putrefaction or change in outward appearance
[1] = system: total viable active bacteria; assay: Keeping test, potato salad not contaminated with Bacillus cereus, 30° C.; details: time without smell of putrefaction or change in outward appearance
Procedure: (§1) Potato salad was prepared according to the following recipe.
(§2) Mayonnaise in the proportion of 10% by weight against the above materials was combined with various chemicals of prescribed concentrations listed in Table 5 and these were evenly mixed with the above food materials. Mixed specimens were prepared by inoculating Bacillus cereus in the form of a spore suspension in such a way as to make the bacterial number n×10^2 per gram on the final specimen.
(§3) The potato salad thus prepared was packed into plastic containers and left standing at 30° C. The bacterial number of total viable active bacteria and that of Bacillus cereus were measured with respect to the changes with time by the same method as in Example 1.
(§4) The effective keeping time and the figures in the upper and the lower spaces for each chemical in the list are used in the same meanings as in Example 4.

Bacillus cereus [2] = assay: Keeping test, cooked rice contaminated with Bacillus cereus, 30° C.; details: for effectiveness against Bacillus cereus in tests with actual food: cooked rice (Example 4), result in words; for Effective keeping time: cooked rice contaminated with Bacillus cereus, 30° C., time until Bacillus cereus 10^6 /g or more
Procedure: Two hundred grams of polished rice was washed in water, and with the addition of 240 ml of water, it was cooked for approximately 15 minutes in an electric rice-cooker which was of the type in public use. The rice cooked was left standing in hot steam for 10 minutes, and then left to cool off at room temperature. On the other hand, a suspension of spores of Bacillus cereus was prepared and added to the cooked rice, which had cooled off, in the proportion of n×10^2 to 1 g final specimen. Specimens were prepared by mixing the rice evenly with addition of the spores.
The cooked rice was put in a plastic case for each 120 g and its temperature was maintained at 30° C., and the number of total viable bacteria and the number of Bacillus cereus were measured periodically using a standard agar culture medium (37° C., 48 hours) and a polymyxin BCW agar culture medium with 5% egg yellow (37° C., 24 hours) for each In parallel with this measurement of the bacterium number, the specimens were examined concerning the outward appearance and the possible smell of putrefaction.
Each of the chemicals shown in Table 4 was dissolved in 20 ml of water to form an aqueous solution of a set concentration.

Streptococcus faecalis = assay: MIC, agar plate dilution method on standard nutrient agar; details: 37° C., 24 hours
Procedure: (§5) The minimum growth inhibiting concentration (MIC) of various antibacterial substances against Bacillus cereus and other general putrefying bacteria were measured by using a standard nutrient agar (made by Difco Corp.) and by introducing the agar plate dilution method.
(§6) On a plain culture medium on which chemicals were placed in a stepwise dilution system the liquid spore suspension (×10^8 /ml) with respect to the strains of the genus of Bacillus and the respective pre-culture mediums (37° C., 24 hours) provided by Brain Heart Infusion Broth with respect to the other strains were smeared.

Bacillus megaterium = assay: as above; details: Bacillus megaterium spores, 37° C., 24 hours
Procedure: as §5, §6

Lactobacillus casei = assay: as above; details: 37° C., 24 hours
Procedure: as §5, §6

Bacillus cereus [3] = assay: as above; details: for minimum growth inhibiting concentration (MIC): Bacillus cereus spores, 37° C., 24 hours, judged with the naked eye; for growth inhibition effect against Bacillus cereus: standard nutrient agar, result in words
Procedure: as §5, §6

Bacillus licheniformis = assay: as above; details: Bacillus licheniformis spores, 37° C., 24 hours
Procedure: as §5, §6

Staphylococcus aureus = assay: as above; details: 37° C., 24 hours
Procedure: as §5, §6

[4] = system: Leuconostoc mesenteroides; assay: as above; details: 37° C., 24 hours
Procedure: as §5, §6

Bacillus subtilis = assay: as above; details: Bacillus subtilis spores, 37° C., 24 hours
Procedure: as §5, §6

Bacillus coaglans = assay: as above; details: Bacillus coaglans spores, 37° C., 24 hours
Procedure: as §5, §6

Bacillus cereus [5] = assay: Keeping test, potato salad contaminated with Bacillus cereus, 30° C.; details: time until Bacillus cereus 10^6 /g or more
Procedure: as §1, §2
The same Bacillus cereus as in Example 1 was employed for this example.
as §3, §4

| Compound | minimum growth inhibiting concentration (MIC) (Streptococcus faecalis) [%] | minimum growth inhibiting concentration (MIC) (Bacillus megaterium) [%] | minimum growth inhibiting concentration (MIC) (Lactobacillus casei) [%] | minimum growth inhibiting concentration (MIC) (Bacillus cereus [3]) [%] | minimum growth inhibiting concentration (MIC) (Bacillus licheniformis) [%] | minimum growth inhibiting concentration (MIC) (Staphylococcus aureus) [%] | minimum growth inhibiting concentration (MIC) [4] [%] | minimum growth inhibiting concentration (MIC) (Bacillus subtilis) [%] | minimum growth inhibiting concentration (MIC) (Bacillus coaglans) [%] | growth inhibition effect against Bacillus cereus (Bacillus cereus [3]) | further results |
| --- | --- | --- | --- | --- | --- | --- | --- | --- | --- | --- | --- |
| CC(=O)[O-].[Na+] [Sodium acetate] | > 0.5 | > 0.5 | > 0.5 | > 0.5 | > 0.5 | > 0.5 | > 0.5 | > 0.5 | > 0.5 | – | Effective keeping time (total viable bacteria; chemical 0.4% by weight): 43.0 h; Effective keeping time ([1]; chemical 0.4% by weight): 27.0 h; effectiveness against Bacillus cereus in tests with actual food (Bacillus cereus [2]): proved effective, though the effect is of no practical value; Effective keeping time (Bacillus cereus [2]; chemical 0.4% by weight): 11.5 h; Effective keeping time (Bacillus cereus [5]; chemical 0.4% by weight): 10.0 h |
| CCCCCCCCCCCC(=O)OCC(O)CO (stereo not drawn) [Lauric acid monoglyceride] | 0.01 | – | 0.01 | – | – | 0.01 | 0.01 | – | – | showed effectiveness | Effective keeping time (total viable bacteria; chemical 0.01% by weight): 40.0 h; Effective keeping time ([1]; chemical 0.01% by weight): 22.0 h; Effective keeping time (Bacillus cereus [2]; chemical 0.01% by weight): 8.2 h; minimum growth inhibiting concentration (MIC) (Bacillus megaterium; in %): 0.0025; minimum growth inhibiting concentration (MIC) (Bacillus cereus [3]; in %): 0.0025; minimum growth inhibiting concentration (MIC) (Bacillus licheniformis; in %): 0.0025; minimum growth inhibiting concentration (MIC) (Bacillus subtilis; in %): 0.0025; minimum growth inhibiting concentration (MIC) (Bacillus coaglans; in %): 0.0025; Effective keeping time (Bacillus cereus [5]; chemical 0.01% by weight): 11.5 h |
| O=P([O-])([O-])OP(=O)([O-])[O-].[Na+].[Na+].[Na+].[Na+] [Sodium pyrophosphate] | > 0.5 | > 0.5 | > 0.5 | > 0.5 | > 0.5 | > 0.5 | > 0.5 | > 0.5 | > 0.5 | – | Effective keeping time (total viable bacteria; chemical 0.5% by weight): 35.0 h; Effective keeping time (Bacillus cereus [2]; chemical 0.5% by weight): 8.6 h |
| CCO [Ethyl alcohol] | – | – | – | – | – | – | – | – | – | – | Effective keeping time ([1]; chemical 1% by weight): 29.2 h; Effective keeping time (Bacillus cereus [5]; chemical 1% by weight): 10.0 h |
| protamine | – | – | – | – | – | – | – | – | – | showed effectiveness | effectiveness against Bacillus cereus in tests with actual food (Bacillus cereus [2]): only protamine has proved to be effective |
| O=C([O-])c1ccccc1.[Na+] [sodium benzoate] | – | – | – | – | – | – | – | – | – | – | Effective keeping time ([1]; chemical 0.1% by weight): 92.0 h; Effective keeping time (Bacillus cereus [5]; chemical 0.1% by weight): 36.2 h |
| C/C=C/C=C/C(=O)O [Sorbic acid] | – | – | – | – | – | – | – | – | – | – | Effective keeping time ([1]; chemical 0.1% by weight): 96.0 h; Effective keeping time (Bacillus cereus [5]; chemical 0.1% by weight): 38.6 h |
| protamine sulfate | 0.1 | 0.05 | 0.1 | 0.1 | 0.05 | 0.05 | 0.1 | 0.05 | 0.05 | – | – |
| NCC(=O)O [Glycine] | 4 | 1 | 4 | > 8 | 2 | 5 | 4 | 1 | 1 | – | Effective keeping time (total viable bacteria; chemical 1% by weight): 110.0 h; Effective keeping time ([1]; chemical 1% by weight): 36.0 h; effectiveness against Bacillus cereus in tests with actual food (Bacillus cereus [2]): proved effective, though the effect is of no practical value; Effective keeping time (Bacillus cereus [2]; chemical 1% by weight): 10.1 h; Effective keeping time (Bacillus cereus [5]; chemical 1% by weight): 12.0 h |
| O=P1([O-])OP(=O)([O-])OP(=O)([O-])OP(=O)([O-])OP(=O)([O-])OP(=O)([O-])O1.[Na+].[Na+].[Na+].[Na+].[Na+].[Na+] [Sodium hexametaphosphate] | – | – | – | – | – | – | – | – | – | showed effectiveness | Effective keeping time (total viable bacteria; chemical 0.5% by weight): 35.0 h; Effective keeping time (Bacillus cereus [2]; chemical 0.5% by weight): 9.2 h; minimum growth inhibiting concentration (MIC) (Streptococcus faecalis; in %): 0.125; minimum growth inhibiting concentration (MIC) (Bacillus megaterium; in %): 0.125; minimum growth inhibiting concentration (MIC) (Lactobacillus casei; in %): 0.125; minimum growth inhibiting concentration (MIC) (Bacillus cereus [3]; in %): 0.125; minimum growth inhibiting concentration (MIC) (Bacillus licheniformis; in %): 0.125; minimum growth inhibiting concentration (MIC) (Staphylococcus aureus; in %): 0.125; minimum growth inhibiting concentration (MIC) ([4]; in %): 0.125; minimum growth inhibiting concentration (MIC) (Bacillus subtilis; in %): 0.125; minimum growth inhibiting concentration (MIC) (Bacillus coaglans; in %): 0.125 |
| Sodium polyphosphate | 0.5 | – | 0.5 | 0.5 | – | 0.5 | 0.5 | – | 0.5 | showed effectiveness | Effective keeping time (total viable bacteria; chemical 0.5% by weight): 35.0 h; Effective keeping time (Bacillus cereus [2]; chemical 0.5% by weight): 9.0 h; minimum growth inhibiting concentration (MIC) (Bacillus megaterium; in %): 0.025; minimum growth inhibiting concentration (MIC) (Bacillus licheniformis; in %): 0.025; minimum growth inhibiting concentration (MIC) (Bacillus subtilis; in %): 0.025 |
| CCCCCCCCCC(=O)OCC(O)CO (stereo not drawn) [Capric acid monoglyceride] | – | 0.01 | – | 0.01 | 0.01 | – | – | 0.01 | 0.01 | showed effectiveness | Effective keeping time (total viable bacteria; chemical 0.01% by weight): 35.0 h; Effective keeping time (Bacillus cereus [2]; chemical 0.01% by weight): 8.4 h; minimum growth inhibiting concentration (MIC) (Streptococcus faecalis; in %): 0.025; minimum growth inhibiting concentration (MIC) (Lactobacillus casei; in %): 0.025; minimum growth inhibiting concentration (MIC) (Staphylococcus aureus; in %): 0.025; minimum growth inhibiting concentration (MIC) ([4]; in %): 0.025 |
| Caprylic acid monoglyceride | 0.05 | 0.05 | 0.05 | 0.05 | 0.05 | 0.1 | 0.05 | 0.05 | 0.05 | showed effectiveness | Effective keeping time (total viable bacteria; chemical 0.05% by weight): 35.0 h; Effective keeping time (Bacillus cereus [2]; chemical 0.05% by weight): 8.6 h |
| Lysozyme | > 0.05 | 0.05 | > 0.05 | > 0.05 | > 0.05 | > 0.05 | > 0.05 | 0.02 | 0.05 | – | Effective keeping time (total viable bacteria; chemical 0.05% by weight): 35.0 h; Effective keeping time (Bacillus cereus [2]; chemical 0.05% by weight): 8.5 h |
